How the values were obtained:
Mda-Mb-231 cells = test: Cell viability assay (XTT assay), Mda-Mb-231; format: cell-based; conditions: Homo sapiens, 72 hrs
Procedure: (§1) Mda-Mb-231 or A549 cells were seeded onto a 96-well micro plate. Next day compounds were added to cells and incubated for 72 hrs. Compound treatment was done in triplicates. After 72 hrs cell culture media was aspirated from the wells and XTT working solution was added and plates were incubated for 2-5 hrs. The absorbance of the samples was measured with a spectrophotometer at a wavelength of 465 nm. EC50 values were calculated using Graphpad Prism. Tumor cell lines used in the examples of the present invention were procured from ATCC. Description of the cell lines is included in the following table: […]

JAK2 = JAK2 (Homo sapiens (Human), UniProt O60674); test: TR-FRET JAK2 kinase assay; format: biochemical; conditions: ATP 10 μM; for inhibition at 0.1 µM: read-out: JAK2 % inhibition at 100 nM, 100 nM; for inhibition at 1 µM: read-out: JAK2 % inhibition at 1 μM
Chain of JAK2 (O60674 whole entry): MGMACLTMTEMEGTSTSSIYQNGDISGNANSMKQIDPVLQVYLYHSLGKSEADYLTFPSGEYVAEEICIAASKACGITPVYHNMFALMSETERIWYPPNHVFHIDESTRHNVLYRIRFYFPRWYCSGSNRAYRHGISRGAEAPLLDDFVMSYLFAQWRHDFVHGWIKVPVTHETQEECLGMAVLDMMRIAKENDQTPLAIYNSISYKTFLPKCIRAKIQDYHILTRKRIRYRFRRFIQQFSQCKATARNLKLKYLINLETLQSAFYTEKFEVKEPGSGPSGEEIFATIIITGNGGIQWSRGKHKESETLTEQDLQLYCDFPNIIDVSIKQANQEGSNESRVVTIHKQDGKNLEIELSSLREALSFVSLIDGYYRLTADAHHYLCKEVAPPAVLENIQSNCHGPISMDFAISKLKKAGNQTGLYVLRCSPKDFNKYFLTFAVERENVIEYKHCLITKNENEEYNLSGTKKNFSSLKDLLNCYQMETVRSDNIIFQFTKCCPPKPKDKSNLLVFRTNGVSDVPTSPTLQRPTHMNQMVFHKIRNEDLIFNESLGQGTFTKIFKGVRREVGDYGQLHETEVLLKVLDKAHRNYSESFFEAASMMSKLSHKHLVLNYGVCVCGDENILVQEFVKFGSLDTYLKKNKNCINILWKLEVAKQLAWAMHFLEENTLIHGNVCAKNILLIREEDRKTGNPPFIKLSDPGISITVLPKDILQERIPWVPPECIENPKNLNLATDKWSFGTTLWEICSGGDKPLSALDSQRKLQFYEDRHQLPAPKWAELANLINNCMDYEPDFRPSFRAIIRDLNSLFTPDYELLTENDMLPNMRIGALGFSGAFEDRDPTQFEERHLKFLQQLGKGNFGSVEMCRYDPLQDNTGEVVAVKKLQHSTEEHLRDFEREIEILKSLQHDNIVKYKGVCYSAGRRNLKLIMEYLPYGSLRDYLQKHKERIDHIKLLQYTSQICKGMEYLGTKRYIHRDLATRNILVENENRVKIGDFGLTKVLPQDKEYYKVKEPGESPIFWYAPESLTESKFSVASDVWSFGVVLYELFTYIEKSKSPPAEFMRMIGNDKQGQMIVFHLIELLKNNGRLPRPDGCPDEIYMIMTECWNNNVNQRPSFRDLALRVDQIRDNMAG
Procedure: (§2) Compounds were screened in the TR-FRET assay for JAK2 and c-Src kinase inhibition. Ultra light poly GT (Perkin Elmer) was used as the substrate for JAK2 and c-Src with the ATP concentration of 10 μM and 50 μM, respectively. […] The dose-response curve fitting was done using GraphPad Prism software.

A549 cells = test: Cell viability assay (XTT assay), A549; format: cell-based; conditions: Homo sapiens, 72 hrs
Procedure: as §1, with “Next” for “Mda-Mb-231 or A549 cells were seeded onto a 96-well micro plate. Next”, “The absorbance of the samples was measured with a spectrophotometer at a wavelength of 465 nm.” left out

c-Src = c-Src (Homo sapiens (Human), UniProt P12931); test: TR-FRET c-Src kinase assay; format: biochemical; conditions: ATP 50 μM; for inhibition at 0.1 µM: read-out: c-SRC % inhibition at 100 nM, 100 nM; for inhibition at 1 µM: read-out: c-SRC % inhibition at 1 μM
Chain of c-Src (P12931 whole entry, looked up): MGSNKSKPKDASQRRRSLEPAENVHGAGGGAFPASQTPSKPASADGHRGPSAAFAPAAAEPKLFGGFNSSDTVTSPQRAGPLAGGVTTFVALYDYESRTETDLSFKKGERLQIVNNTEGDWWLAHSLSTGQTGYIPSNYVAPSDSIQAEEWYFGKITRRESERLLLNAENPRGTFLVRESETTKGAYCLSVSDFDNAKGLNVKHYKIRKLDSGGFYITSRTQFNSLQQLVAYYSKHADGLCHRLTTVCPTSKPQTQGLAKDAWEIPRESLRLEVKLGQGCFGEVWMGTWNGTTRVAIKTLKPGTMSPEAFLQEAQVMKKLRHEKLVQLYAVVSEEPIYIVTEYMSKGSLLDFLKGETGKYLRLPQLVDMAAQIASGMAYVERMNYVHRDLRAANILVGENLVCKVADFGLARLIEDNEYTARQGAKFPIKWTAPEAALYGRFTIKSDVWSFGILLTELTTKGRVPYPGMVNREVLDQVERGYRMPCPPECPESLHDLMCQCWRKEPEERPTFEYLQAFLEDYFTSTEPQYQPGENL
Procedure: as §2

A431 cancer cell line = test: Inhibition of cell growth in A431; format: cell-based; conditions: Homo sapiens, A-431
pStat3 [1] = test: In-Cell-Western blot assay for pStat3 (ICW) in A431 cells; format: cell-based; conditions: Homo sapiens, A-431, 2 hrs, read-out: pSTAT3 inhibition
Procedure: A431 cells were seeded onto a 96-well micro plate. After overnight serum starvation cells were incubated with compounds for 2 hrs. Cells were fixed with 4% paraformaldehyde in PBS and then permeabilized with 0.1% Triton X-100 in PBS (PBST). Cells were blocked with 5% BSA in PBST for 2 hrs, followed by overnight incubation with phospho Stat3 antibody. Cells were washed and incubated with europium-labeled anti-rabbit secondary antibody for 2 hrs. After washing enhancement solution was added to the wells. The micro-plate was read on the Victor instrument at the Europium setting. The Hoechst readings were used to normalize for cell number. IC50 values were calculated with the normalized europium values using Graphpad Prism.

Volume distribution = conditions: in vivo
From the text: Table 8 provides some volume distribution values of the compounds of the present invention.

pStat3 [2] = test: Quantification of pStat3 in tumors by flow cytometry; format: in vivo, mice; conditions: A549 Xenograft model
Procedure: (§3) Measured pStat3 using FACS caliber machine (BD). Unstained PBMCs was used for cytometry settings. […] Histograms (cell number V/s FL1-H) were plotted. Percentage of cells that are phosphorylated by IL6 stimulation (M2 population), and inhibition of phosphorylation by inhibitor (decrease in M2 population) are calculated on histogram by marking peaks, M1 and M2.
Separate the tumour & 200 mg of tumour was crashed (45 mg per ml) by using IKA 10 at Speed #4 for 10 seconds. Sieve the tumour extract through 100 u, centrifuge at 900 g for 10 min. Re-suspend cells briefly in 0.5-1 ml PBS. Add formaldehyde to a final concentration of 2-4% formaldehyde. Fix for 10 minutes at 37° C. Chill tubes on ice for 1 minute.
Permeabilize cells by adding ice-cold 100% methanol slowly to pre-chilled cells, while gently vortexing, to a final concentration of 90% methanol. Alternatively, to remove fix prior to permeabilization, pellet cells by centrifugation and re-suspend in 90% methanol. Incubate 30 minutes on ice. Proceed with staining or store cells at −20° C. in 90% methanol. Aliquot 0.5-1×10^6 cells into each assay tube (by volume). Add 2-3 ml Incubation Buffer to each tube and rinse by centrifugation. Repeat. Re-suspend cells in 100 μl Incubation Buffer per assay tube. Analyze by flow cytometry like PBMCs.

pStat3 [3] = test: Quantification of pStat3 in PBMCs by flow cytometry; format: in vivo, mice; conditions: A549 Xenograft model
Procedure: Phosphorylation of Stat3 was stimulated by addition of hIL6 (10 ug/mL) for 30 min at 37° C. Blood was fixed with formaldehyde (final 2% v/v) for 10 min at 37° C.
Buffy coat (PBMCs) was separated by aspirating translucent layer using pipetteman and washed twice with PBS-1×
Pre chilled PBMC's were permeabilized by adding ice cold Methanol, while vortexing gently (final volume 90% MeOH v/v) and incubated for 30 min on ice.
Permeabilized PBMCs were washed with PBS once. PBMCs re-suspended to 2×10^6 cells in 200 μL of incubation buffer for 10 min at room temperature (RT). Primary Ab was added (1:100 dilution) and incubated 45 min at RT. Washed as before (twice) and re-suspended in fluorochrome conjugated secondary Ab (1:500 dilution) and incubated at RT in dark for 30 min. Washed and re-suspended in […] PBS.
as §3

A549 tumor cells = test: A549 xenograft model; format: in vivo; conditions: A549 Xenograft model
Procedure: Sub-cutaneous (SC) injection of 5×10^6 A549 tumor cells on the left flank of 48 female athymic nude mice. Randomization of mice 14 days after tumor cell injection into 6 groups of 8 mice each with a mean tumor volume of 134±5 mm3.
Formulation: 20% HPC, 2% ethanol solution in PBS for the compounds No. 45, 117 and 179.
• Normal saline for Erlotinib® Dosing route: Oral for the compounds No. 45, 117 and 179, and Erlotinib® Dose Volume: 10 mL/Kg body weight Dosing schedule: Once daily for 14 consecutive days (Q1Dx14) Dosage: • Group1. Vehicle control • Group2. Erlotinib®-100 MPK • Group3. Compound No. 45—10 MPK • Group4. Compound No. 45—30 MPK • Group5. Compound No. 45—100 MPK • Group6. Compound No. 117—30 MPK • Group7. Compound No. 117—100 MPK • Group8. Compound No. 179—10 MPK • Group9. […] Plasma collected for drug concentration estimation and whole blood was collected to isolate PBMCs (peripheral blood monocytes) to determine pStat3 inhibition by flow cytometry as PD readout. Tumors were snap frozen in liquid nitrogen and stored at −80° C. to estimate pStat3 by flow cytometry as PD readout EXPT. 2
SC injection of 5×10^6 A549 tumor cells on the left flank of 24 female athymic nude mice. Randomization of mice 14 days after tumor cell injection into 3 groups of 8 mice each with a mean tumor volume of 75±7 mm3.
Formulation: 20% HPC, 2% ethanol solution in PBS for the compound No. 45
• Normal saline for Erlotinib® Dosing route: Oral for compound No. 45 and Erlotinib® Dose Volume: 10 mL/Kg body weight Dosing schedule: Once daily for 14 consecutive days (Q1Dx14) Dosage: • Group1. Vehicle control • Group2. Compound No. 45—150 MPK • Group3. […] Plasma collected for drug concentration estimation and whole blood was collected to isolate PBMCs to determine pStat3 inhibition by flow cytometry as PD readout. Tumors were snap frozen in liquid nitrogen and stored at −80° C. to estimate pStat3 by flow cytometry as PD readout Results: […]

| SMILES | EC50 (Mda-Mb-231 cells) [nM] | EC50 (A549 cells) [nM] | EC50 (A431 cancer cell line) [nM] | IC50 (pStat3 [1]) [nM] | inhibition at 0.1 µM (c-Src) [%] | inhibition at 1 µM (c-Src) [%] | further results |
| --- | --- | --- | --- | --- | --- | --- | --- |
| Cc1ccc(NC(=O)c2cccc(C(C)(C)C)c2)cc1N1CCc2nc(Nc3ccc(N4CCN(C)CC4)cc3)ncc2C1=O [Compound 86] | 530 | 78 | 570 | 580 | – | – | – |
| Cc1ccc(NC(=O)CCC(F)(F)F)cc1N1CCc2nc(Nc3ccc(N4CCN(C)CC4)cc3)ncc2C1 [Compound 131, 4,4,4-Trifluoro-N-(4-methyl-3-{2-[4-(4-methyl-piperazin-1-yl)-phenylamino]-7,8-dihydro-5H-pyrido[4,3-d]pyrimidin-6-yl}-phenyl)-butyramide] | 880 | – | – | – | 74 | 90 | Vd (Volume distribution): 7.14 L/kg |
| Cc1ccc(NC(=O)c2cccc(C(F)(F)F)c2)cc1N1CCc2nc(Nc3ccc(C(=O)N4CCN(C)CC4)nc3)ncc2C1 [Compound 132, N-(4-Methyl-3-{2-[6-(4-methyl-piperazine-1-carbonyl)-pyridin-3-ylamino]-7,8-dihydro-5H-pyrido[4,3-d]pyrimidin-6-yl}-phenyl)-3-trifluoromethyl-benzamide] | 41 | 47 | – | 480 | – | – | IC50 (JAK2): 3 nM; IC50 (c-Src): 5 nM |
| Cc1ccc(NC(=O)c2cccc(C(F)(F)F)c2)cc1N1CCc2nc(Nc3cccc(CN4CCN(C)CC4)c3)ncc2C1 [Compound 137, N-(4-Methyl-3-{2-[3-(4-methyl-piperazin-1-ylmethyl)-phenylamino]-7,8-dihydro-5H-pyrido[4,3-d]pyrimidin-6-yl]-phenyl)-3-trifluoromethyl-benzamide] | 74 | 426 | 670 | 670 | – | – | IC50 (c-Src): 7 nM |
| O=C(COc1ccc(Nc2ncc3c(n2)CCN(c2cc(NC(=O)c4cccc(C(F)(F)F)c4)ccc2Cl)C3=O)cc1)NC1CC1 [Compound 185, N-(4-Chloro-3-[2-(4-(cyclopropylcarbamoylmethoxy)phenylamino)-5-oxo-7,8-dihydro-5H-pyrido[4,3-d]pyrimidin-6-yl]-phenyl}-3-trifluoromethyl-benzamide] | – | – | – | – | – | – | Vd (Volume distribution): 0.583 L/kg |
| C#Cc1cccc(Nc2ncnc3cc(OCCOC)c(OCCOC)cc23)c1 [Erlotinib, reference compound] | – | – | – | – | – | – | Tumors % pStat3 inhibition (pStat3 [2]; 100 MPK): 28.14%; PBMCs % pStat3 inhibition (pStat3 [3]; 100 MPK): 44.43%; % TGI (Tumor Growth Inhibition) (A549 tumor cells; 100 MPK): 59.55% |
| Cc1cnc(Nc2ccc(OCCN3CCCC3)cc2)nc1Nc1cccc(S(=O)(=O)NC(C)(C)C)c1 [TG101348, reference compound] | 680 | 1200 | – | > 10000 | – | – | – |
| CCC1=C[C@@H]2CN(C1)Cc1c([nH]c3ccccc13)[C@@](C(=O)OC)(c1cc3c(cc1OC)N(C)[C@H]1[C@@](O)(C(=O)OC)[C@H](OC(C)=O)[C@]4(CC)C=CCN5CC[C@]31[C@@H]54)C2 [Vinorelbine, reference compound] | – | – | – | – | – | – | Tumors % pStat3 inhibition (pStat3 [2]; 8 MPK): 25.2%; PBMCs % pStat3 inhibition (pStat3 [3]; 8 MPK): 28.8%; % TGI (Tumor Growth Inhibition) (A549 tumor cells; 8 MPK): 51.89% |

Now from value to molecule, other results behind:

| EC50 (Mda-Mb-231 cells) [nM] | EC50 (A549 cells) [nM] | EC50 (A431 cancer cell line) [nM] | IC50 (pStat3 [1]) [nM] | inhibition at 0.1 µM (c-Src) [%] | inhibition at 1 µM (c-Src) [%] | SMILES | further results |
| --- | --- | --- | --- | --- | --- | --- | --- |
| 3600 | 3400 | 1450 | 450 | – | – | Cc1ccc(NC(=O)c2cccc(C(F)(F)F)c2)cc1N1CCc2nc(Nc3ccc(OCCN4CCCC4)cc3)ncc2C1=O [Compound 7, N-(4-Methyl-3-{5-oxo-2-[4-(2-pyrrolidin-1-yl-ethoxy)-phenylamino]-7,8-dihydro-5H-pyrido[4,3-d]pyrimidin-6-yl}-phenyl)-3-trifluoromethyl-benzamide] | IC50 (JAK2): 83 nM; IC50 (c-Src): 16 nM |
| 1620 | 1480 | 1070 | 140 | 66 | 87 | Cc1ccc(NC(=O)c2cccc(C(F)(F)F)c2)cc1N1CCc2nc(Nc3ccc(OCCCN4CCN(C)CC4)cc3)ncc2C1=O [Compound 180, N-[4-Methyl-3-(2-{4-[3-(4-methyl-piperazin-1-yl)-propoxy]-phenylamino}-5-oxo-7,8-dihydro-5H-pyrido[4,3-d]pyrimidin-6-yl)-phenyl]-3-trifluoromethyl-benzamide] | inhibition at 0.1 µM (JAK2): 67%; inhibition at 1 µM (JAK2): 91% |
| 3340 | 2540 | 1300 | – | 53 | 77 | O=C(Nc1ccc(Cl)c(N2CCc3nc(Nc4ccc(OCCN5CCCC5)cc4)ncc3C2=O)c1)c1cccc(C(F)(F)F)c1 [Compound 181, N-(4-Chloro-3-{5-oxo-2-[4-(2-pyrrolidin-1-yl-ethoxy)-phenylamino]-7,8-dihydro-5H-pyrido[4,3-d]pyrimidin-6-yl}-phenyl)-3-trifluoromethyl-benzamide] | inhibition at 0.1 µM (JAK2): 85%; inhibition at 1 µM (JAK2): 93% |
| 2760 | 1080 | 5070 | – | 51 | 80 | Cc1ccc(NC(=O)c2cccc(C(F)(F)F)c2)cc1N1CCc2nc(Nc3ccc(OCCCN4CCOCC4)cc3)ncc2C1=O [Compound 182, N-(4-Methyl-3-{2-[4-(3-morpholin-4-yl-propoxy)-phenylamino]-5-oxo-7,8-dihydro-5H-pyrido[4,3-d]pyrimidin-6-yl}-phenyl)-3-trifluoromethyl-benzamide] | inhibition at 0.1 µM (JAK2): 55%; inhibition at 1 µM (JAK2): 85% |

— patent US8962637B2, “Bicyclic compounds and their uses as dual c-SRC/JAK inhibitors” (Debiopharm S.A., priority 2010, dated 2015)
